Each structure is given as a SMILES string. Where a SMILES comes first, the peptide text is derived from it. Where only a bound is given, the exact number is not on record here.

For this experiment, the target named is T1, rh integrin α4β7 (Homo sapiens, UniProt P13612+P26010).
T1 construct: purchased R&D Systems 5397-A30
T1 sequence (P13612 34-977 limits assumed): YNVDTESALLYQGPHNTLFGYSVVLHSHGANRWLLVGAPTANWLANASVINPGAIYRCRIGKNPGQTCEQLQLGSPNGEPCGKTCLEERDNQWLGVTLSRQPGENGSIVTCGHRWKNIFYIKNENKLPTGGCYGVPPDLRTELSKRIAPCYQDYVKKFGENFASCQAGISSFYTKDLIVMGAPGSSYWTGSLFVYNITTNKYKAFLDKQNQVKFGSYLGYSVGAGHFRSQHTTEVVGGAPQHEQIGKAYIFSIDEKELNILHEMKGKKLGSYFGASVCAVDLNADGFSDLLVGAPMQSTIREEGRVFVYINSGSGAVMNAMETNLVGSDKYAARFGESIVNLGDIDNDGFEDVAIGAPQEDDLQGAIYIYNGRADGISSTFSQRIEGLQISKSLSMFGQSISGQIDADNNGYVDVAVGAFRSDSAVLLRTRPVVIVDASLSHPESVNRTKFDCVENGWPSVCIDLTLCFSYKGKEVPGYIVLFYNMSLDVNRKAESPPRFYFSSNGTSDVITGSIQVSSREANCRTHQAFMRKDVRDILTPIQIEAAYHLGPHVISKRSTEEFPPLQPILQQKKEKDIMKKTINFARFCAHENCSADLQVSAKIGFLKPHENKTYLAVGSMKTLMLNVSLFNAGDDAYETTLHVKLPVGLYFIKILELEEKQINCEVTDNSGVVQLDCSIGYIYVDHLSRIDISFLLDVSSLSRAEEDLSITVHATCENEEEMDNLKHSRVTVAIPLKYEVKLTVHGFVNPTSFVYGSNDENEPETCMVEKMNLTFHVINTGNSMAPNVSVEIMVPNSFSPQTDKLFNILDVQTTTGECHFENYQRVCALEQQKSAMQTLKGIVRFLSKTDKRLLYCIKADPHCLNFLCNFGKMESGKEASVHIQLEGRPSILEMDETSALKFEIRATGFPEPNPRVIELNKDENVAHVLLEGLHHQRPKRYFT
T1 sequence (P26010 20-723 limits assumed): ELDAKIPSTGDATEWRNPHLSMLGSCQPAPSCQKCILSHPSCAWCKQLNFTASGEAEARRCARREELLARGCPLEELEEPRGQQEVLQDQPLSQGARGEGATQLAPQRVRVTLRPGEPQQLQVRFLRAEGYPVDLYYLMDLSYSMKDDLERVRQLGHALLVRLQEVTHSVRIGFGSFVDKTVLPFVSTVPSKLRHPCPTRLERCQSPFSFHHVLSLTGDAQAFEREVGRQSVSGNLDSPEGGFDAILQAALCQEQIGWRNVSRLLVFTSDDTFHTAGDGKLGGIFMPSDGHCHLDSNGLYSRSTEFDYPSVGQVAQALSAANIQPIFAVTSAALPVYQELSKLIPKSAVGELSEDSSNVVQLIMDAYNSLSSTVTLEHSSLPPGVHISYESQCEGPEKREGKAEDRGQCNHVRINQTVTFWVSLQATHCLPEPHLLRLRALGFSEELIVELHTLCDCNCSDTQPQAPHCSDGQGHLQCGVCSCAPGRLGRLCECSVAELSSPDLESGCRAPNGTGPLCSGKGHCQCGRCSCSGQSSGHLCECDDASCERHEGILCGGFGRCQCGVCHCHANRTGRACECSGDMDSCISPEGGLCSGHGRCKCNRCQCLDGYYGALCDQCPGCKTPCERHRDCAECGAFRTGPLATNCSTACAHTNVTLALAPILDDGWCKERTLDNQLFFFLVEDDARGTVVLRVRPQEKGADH
In words: α4β7-MAdCAM Competition ELISA. The format is binding. The note with it: thioether monomer peptides, Table 6; read-out: ELISA A4B7. On the procedure:
α4β7-MAdCAM Competition ELISA A nickel coated plate (Pierce #15442) was coated with rh integrin α4β[…] Systems #5397-A30) at 800 ng/well and incubated at room temperature with shaking for 1 hr. The solution was then removed by shaking and blocked with assay buffer (50 mM Tris-HCl pH7.6, 150 mM NaCl, 1 mM MnCl2 or MgCl2, 0.05% Tween-20 and 0.5% BSA) at 250 ul/well. The plate was then incubated at room temperature for 1 hr. Each well was washed 3 times with wash buffer (50 mM Tris-HCl pH7.6, 100 mM NaCl, 1 mM MnCl2 or MgCl2, 0.05% Tween-20). To each well was added 25 ul of a serial dilution (3-fold dilutions in assay buffer) of peptides starting at 20 μM. 25 ul of recombinant human MAdCAM-1 (R&D Systems #6056-MC) was then added to each well at a fixed concentration 20 nM. The final starting peptide concentration was 10 μM, and the final MAdCAM-1 concentration was 10 nM. The plates were then incubated at room temperature for 1 hr to reach binding equilibrium. The wells were then washed three times with wash buffer. 50 ul of mouse anti-human IgG1-HRP (Invitrogen #A10648) diluted in 1:2000 in assay buffer was then added to each well. The wells were incubated at room temperature for 45 min with shaking. The wells were then washed 3 times with wash buffer. 100 ul of TMB were then added to each well and closely observe during development time. The reaction was stopped with 2N H2SO4 and absorbance was read at 450 nm.
As to `CC(C)C[C@@H]1NC(=O)[C@H]([C@@H](C)O)NC(=O)[C@H](CC(=O)O)NC(=O)[C@H](CO)NC(=O)[C@H](CCCNC(=N)N)N(C)C(=O)C(C)SC(C)(C)[C@@H](C(=O)N[C@@H](Cc2c[nH]c3ccccc23)C(=O)N[C@H](CCCCN)C(N)=O)NC1=O` (single isomer, unassigned) [compound 54], the IC50 is more than 1000 nM.

For `CC(C)C[C@@H]1NC(=O)[C@H]([C@@H](C)O)NC(=O)[C@H](CC(=O)O)NC(=O)[C@H](CO)NC(=O)[C@H](CCCNC(=N)N)N(C)C(=O)C(C)(C)SC[C@@H](C(=O)N[C@@H](Cc2c[nH]c3ccccc23)C(=O)N[C@H](CCCCN)C(N)=O)NC1=O` [compound 52], the IC50 was more than 1000 nM.

As for `CC(C)C[C@@H]1NC(=O)[C@H]([C@@H](C)O)NC(=O)[C@H](CC(=O)O)NC(=O)[C@H](CO)NC(=O)[C@H](CCCNC(=N)N)N(C)C(=O)c2ccccc2CSC(C)(C)[C@@H](C(=O)N[C@@H](Cc2ccc(O)cc2)C(=O)N[C@H](CCC(=O)O)C(=O)N[C@H](CCCCN)C(N)=O)NC1=O` [compound 79] (HELM PEPTIDE1{[meR].S.D.T.L.[Pen].Y.[dE].[dK].[am]}|CHEM1{[O=C(c1ccccc1C[*:2])[*:1]]}$PEPTIDE1,CHEM1,1:R1-1:R1|PEPTIDE1,CHEM1,6:R3-1:R2$$$V2.0), the IC50 was less than 25 nM.

Regarding `CC(=O)NCCCC[C@@H](NC(=O)C[C@H](CCC(=O)O)NC(=O)[C@H](Cc1c[nH]c2ccccc12)NC(=O)[C@H]1NC(=O)[C@H](CC(C)C)NC(=O)[C@H]([C@@H](C)O)NC(=O)[C@H](CC(=O)O)NC(=O)[C@H](CO)NC(=O)[C@H](CCCNC(=N)N)N(C)C(=O)c2ccccc2CSC1(C)C)C(N)=O` [compound 83] (HELM PEPTIDE1{[meR].S.D.T.L.[Pen].W.[O=C(O)CC[C@@H](CC(=O)[*:2])N[*:1]].[dK].[am]}|PEPTIDE2{[ac]}|CHEM1{[O=C(c1ccccc1C[*:2])[*:1]]}$PEPTIDE1,PEPTIDE2,9:R3-1:R2|PEPTIDE1,CHEM1,1:R1-1:R1|PEPTIDE1,CHEM1,6:R3-1:R2$$$V2.0), the IC50 was less than 25 nM.

On to `CC(=O)NCCCC[C@H](C(N)=O)N(C)C(=O)[C@H](CCC(=O)O)NC(=O)[C@H](Cc1c[nH]c2ccccc12)NC(=O)[C@H]1NC(=O)[C@H](CC(C)C)NC(=O)[C@H]([C@@H](C)O)NC(=O)[C@H](CC(=O)O)NC(=O)[C@H](CO)NC(=O)[C@H](CCCNC(=N)N)N(C)C(=O)c2ccccc2CSC1(C)C` [compound 84] (HELM PEPTIDE1{[meR].S.D.T.L.[Pen].W.E.[CN([C@H](CCCCN[*:3])C(=O)[*:2])[*:1]].[am]}|PEPTIDE2{[ac]}|CHEM1{[O=C(c1ccccc1C[*:2])[*:1]]}$PEPTIDE1,PEPTIDE2,9:R3-1:R2|PEPTIDE1,CHEM1,1:R1-1:R1|PEPTIDE1,CHEM1,6:R3-1:R2$$$V2.0), for which the IC50 was less than 25 nM.

For the compound `CC(=O)NCCCC[C@@H](C(N)=O)N(C)C(=O)[C@H](Cc1ccc(O)cc1)NC(=O)[C@H](Cc1c[nH]c2ccccc12)NC(=O)[C@H]1NC(=O)[C@H](CC(C)C)NC(=O)[C@H]([C@@H](C)O)NC(=O)[C@H](CC(=O)O)NC(=O)[C@H](CO)NC(=O)[C@H](CCCNC(=N)N)N(C)C(=O)c2ccccc2CSC1(C)C` [compound 85] (HELM PEPTIDE1{[meR].S.D.T.L.[Pen].W.Y.[CN([C@@H](CCCCN[*:3])C(=O)[*:2])[*:1]].[am]}|PEPTIDE2{[ac]}|CHEM1{[O=C(c1ccccc1C[*:2])[*:1]]}$PEPTIDE1,PEPTIDE2,9:R3-1:R2|PEPTIDE1,CHEM1,1:R1-1:R1|PEPTIDE1,CHEM1,6:R3-1:R2$$$V2.0), the IC50 was less than 25 nM.

With `CCCC[C@@H]1NC(=O)[C@H]([C@@H](C)O)NC(=O)[C@H](CC(=O)O)NC(=O)[C@H](CO)NC(=O)[C@H](CCCNC(=N)N)N(C)C(=O)c2ccccc2CSC(C)(C)[C@@H](C(=O)N[C@@H](Cc2c[nH]c3ccccc23)C(=O)N[C@@H](CCC(=O)O)C(=O)N[C@H](CCCCNC(C)=O)C(N)=O)NC1=O` [compound 86] (HELM PEPTIDE1{[meR].S.D.T.[Nle].[Pen].W.E.[dK].[am]}|PEPTIDE2{[ac]}|CHEM1{[O=C(c1ccccc1C[*:2])[*:1]]}$PEPTIDE1,PEPTIDE2,9:R3-1:R2|PEPTIDE1,CHEM1,1:R1-1:R1|PEPTIDE1,CHEM1,6:R3-1:R2$$$V2.0), the IC50 is less than 25 nM.

`CC(=O)NCCCC[C@@H](NC(=O)[C@@H](CCC(=O)O)NC(=O)[C@H](Cc1ccccc1)NC(=O)[C@H]1NC(=O)[C@H](CC(C)C)NC(=O)[C@H]([C@@H](C)O)NC(=O)[C@H](CC(=O)O)NC(=O)[C@H](CO)NC(=O)[C@H](CCCNC(=N)N)N(C)C(=O)c2ccccc2CSC1(C)C)C(N)=O` [compound 87] (HELM PEPTIDE1{[meR].S.D.T.L.[Pen].F.[dE].[dK].[am]}|PEPTIDE2{[ac]}|CHEM1{[O=C(c1ccccc1C[*:2])[*:1]]}$PEPTIDE1,PEPTIDE2,9:R3-1:R2|PEPTIDE1,CHEM1,1:R1-1:R1|PEPTIDE1,CHEM1,6:R3-1:R2$$$V2.0): the IC50 is less than 25 nM.

Consider `CC(=O)NCCCC[C@@H](NC(=O)[C@H](CCC(=O)O)NC(=O)[C@H](Cc1ccc(O)cc1)NC(=O)[C@H]1NC(=O)[C@H](CC(C)C)NC(=O)[C@H]([C@@H](C)O)NC(=O)[C@H](CC(=O)O)NC(=O)[C@H](CO)NC(=O)[C@H](CCCNC(=N)N)N(C)C(=O)c2ccccc2CSC1(C)C)C(N)=O` [compound 90] (HELM PEPTIDE1{[meR].S.D.T.L.[Pen].Y.E.[dK].[am]}|PEPTIDE2{[ac]}|CHEM1{[O=C(c1ccccc1C[*:2])[*:1]]}$PEPTIDE1,PEPTIDE2,9:R3-1:R2|PEPTIDE1,CHEM1,1:R1-1:R1|PEPTIDE1,CHEM1,6:R3-1:R2$$$V2.0), for which the IC50 is less than 25 nM.

As to `CC(C)C[C@H](NC(=O)[C@@H](CCC(=O)O)NC(=O)[C@H](Cc1c[nH]c2ccccc12)NC(=O)[C@H]1NC(=O)[C@H](CC(C)C)NC(=O)[C@H]([C@@H](C)O)NC(=O)[C@H](CC(=O)O)NC(=O)[C@H](CO)NC(=O)[C@H](CCCNC(=N)N)N(C)C(=O)c2ccccc2CSC1(C)C)C(N)=O` [compound 99] (HELM PEPTIDE1{[meR].S.D.T.L.[Pen].W.[dE].L.[am]}|CHEM1{[O=C(c1ccccc1C[*:2])[*:1]]}$PEPTIDE1,CHEM1,1:R1-1:R1|PEPTIDE1,CHEM1,6:R3-1:R2$$$V2.0), the IC50 was less than 25 nM.

On to `CC(C)C[C@@H]1NC(=O)[C@H]([C@@H](C)O)NC(=O)[C@H](CC(=O)O)NC(=O)[C@H](CO)NC(=O)[C@H](CCCNC(=N)N)N(C)C(=O)c2ccccc2CSC(C)(C)[C@@H](C(=O)N[C@@H](Cc2c[nH]c3ccccc23)C(=O)N[C@H](CCC(=O)O)C(=O)N[C@@H](CCC(N)=O)C(N)=O)NC1=O` [compound 103] (HELM PEPTIDE1{[meR].S.D.T.L.[Pen].W.[dE].Q.[am]}|CHEM1{[O=C(c1ccccc1C[*:2])[*:1]]}$PEPTIDE1,CHEM1,1:R1-1:R1|PEPTIDE1,CHEM1,6:R3-1:R2$$$V2.0), for which the IC50 was less than 25 nM.

Source of the values: US20260217767A1, “NOVEL A4B7 THIOETHER PEPTIDE DIMER ANTAGONISTS” (Protagonist Therapeutics, Inc., priority 2014, published 2026).
